The text below walks through data of patent US5451584A, “N-alkynyl carboxamides as sertonergic agents” (American Home Products Corporation, priority 1994, dated 1995).

Assay [1] addresses T1, 5-HT1A serotonin receptor (Rattus norvegicus, UniProt P19327).
T1 construct: from tissue; inferred from the cited Hall et al. 1985 procedure
T1 sequence (P19327 1-422): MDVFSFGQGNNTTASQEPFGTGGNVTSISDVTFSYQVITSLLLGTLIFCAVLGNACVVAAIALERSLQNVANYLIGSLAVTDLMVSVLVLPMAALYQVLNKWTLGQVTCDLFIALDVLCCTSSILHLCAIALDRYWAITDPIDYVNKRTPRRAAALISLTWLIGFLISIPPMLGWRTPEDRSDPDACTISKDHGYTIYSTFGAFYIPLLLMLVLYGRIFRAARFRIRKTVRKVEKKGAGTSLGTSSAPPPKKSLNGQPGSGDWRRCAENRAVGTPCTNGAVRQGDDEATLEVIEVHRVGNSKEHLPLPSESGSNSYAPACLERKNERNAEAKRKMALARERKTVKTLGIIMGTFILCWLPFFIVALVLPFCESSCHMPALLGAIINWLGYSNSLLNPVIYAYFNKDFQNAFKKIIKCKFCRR
Description: displacement of [^3 H] 8-OHDPAT (dipropylaminotetralin) from the 5-HT1A serotonin receptor. The conditions noted are these: procedure of Hall et al., read-out: 5-HT1A Binding (IC50). How it is done:
The compounds of this invention are prepared by conventional methods. For example, the appropriately substituted "acid" is transformed in the presence of a coupling agent like N,N-bis(2-oxo-3-oxazolidinyl)phosphoramidic chloride to yield the desired products ( 1 ). [drawing 3] High affinity for the serotonin 5-HT1A receptor was established by testing the claimed compound's ability to displace [^3 H] 8-OHDPAT (dipropylaminotetralin) from the 5-HT1A serotonin receptor following the procedure of Hall et al., J. Neurochem. 44, 1685 (1985). […] The anxiolytic activity of buspirone is believed to be, at least partially, due to its 5-HT1A receptor affinity (Vander Maclen et al., Eur. J. Pharmacol. 1986, 129 (1-2) […]).

In assay [2] the target is T1, 5-HT1A serotonin receptor. Conditions: buspirone, standard for anxiolytic activity; cited from earlier work.

Turning to `C#CCNC(=O)C(CCN1CCN(c2ccccc2OC)CC1)c1ccccc1` (stereo not drawn) [Example 1, 4-[4-(2-Methoxy-phenyl)-piperazin-1]-2-phenyl-N-prop-2-ynyl-butyramide], the half-inhibitory concentration (IC50) in assay [1] is 44.9 nM.
Still for that read-out and setting: next, `C#CCN(C)C(=O)C(CCN1CCN(c2ccccc2OC)CC1)c1ccccc1` (stereo not drawn) [Example 2, 4-[4-(2-Methoxy-phenyl)-piperazin-1-yl]-N-methyl-2-phenyl-N-prop-2-ynyl-butyramide]: 19.4 nM.
Turning to `O=C1CC2(CCCC2)CC(=O)N1CCCCN1CCN(c2ncccn2)CC1` [buspirone], the “affinity for the 5-HT1A serotonin receptor subtype (in words)” value in assay [2] was “potent affinity”.

The term IC50 denotes the midpoint of a concentration-inhibition curve.
